{
  "source": "patent US11826431B2",
  "about": "“Polypeptide-based ocular absorption enhancer and application thereof” (Fudan University, priority 2017, dated 2023)",
  "key": {"[1]": {"experiment": "Intraocular distribution of penetratin derivative-FAM complexes after conjunctival sac administration", "format": "in vivo, mice", "method": "Evaluation of intraocular distribution of the covalently linked complex of Penetratin derivatives and small molecules: 5 μL of a solution of complex of penetratin derivative and FAM (concentration 30 μM) was dripped into the conjunctival sac of male mice, and the eyelids were gently closed to distribute the solution evenly. The solution was administered every 10 minutes for a total of 3 times, and taking the time of the last administration as zero time. At a preset time point, mice were killed by intraperitoneal injection of excessive chloral hydrate, and the eyeballs of the mice were removed, fixed with Davidson's solution for 0.5 h, and embedded. Frozen longitudinal sections of eyeballs were prepared and the nuclei were stained with DAPI, and the distribution of polypeptides in the eye parts was observed under an inverted fluorescence microscope."}, "[2]": {"experiment": "In vitro tissue permeability, isolated sclera (diffusion cells)", "format": "in vitro ADME, rabbit", "method": "(§1) Evaluation of in vitro tissue permeability of the covalently linked complex of Penetratin derivatives and small molecular substances: the experimental rabbits were anesthetized with pentobarbital sodium (30 mg/kg), which is injected via ear vein, and sacrificed by injection with excessive chloral hydrate (150 mg/kg). After separation of the conjunctiva, carefully removed the entire eyeball, make a circumcision at about 2 mm from the limbus of cornea and remove the cornea, and removed the iris and other tissues to obtain an experimental cornea. The rest of the eyeballs were removed from the retina and other tissues to obtain an experimental sclera. Both the cornea and sclera were carefully washed with Ringer's solution 3 times before use. The experiment was started within 30 min after the animals were sacrificed. The freshly isolated cornea and sclera were carefully sandwiched between two diffusion cells, with the epithelial surface facing a diffusion cell (supply cell) on the left, the diffusion window diameter was 10.25 mm, and the diffusion area was 0.825 cm^2. 3.5 mL of Ringer's solutions were added to the supply cell and a receiving cell on the right, respectively. Circulating water was passed therein, and the water temperature was kept at 34° C.±0.5° C. […] Immediately after the experiment, the fluorescence intensity of the sample was measured. […]"}, "[3]": {"experiment": "In vitro tissue permeability, isolated cornea (diffusion cells)", "format": "in vitro ADME, rabbit", "method": "as §1"}, "[4]": {"details": "10 min after conjunctival sac administration (FIG. 6B)"}, "[5]": {"details": "7.5 μM complex with FAM, 34° C."}, "[6]": {"details": "DAPI stained frozen sections after permeability experiment"}},
  "note": "Where a SMILES comes first, the peptide text is derived from it. The star is where a group is joined. 5FAM = O=C1OC2(c3ccc(O)cc3Oc3cc(O)ccc32)c2ccc(C(=O)*)cc21",
  "data": [
    {"smiles": "C[C@H](NC(=O)[C@H](C)NC(=O)[C@H](CCCCN)NC(=O)[C@H](C)NC(=O)[C@H](CCC(N)=O)NC(=O)[C@@H](N)CCCNC(=N)N)C(=O)N[C@@H](C)C(=O)N[C@@H](CCC(N)=O)C(=O)N[C@@H](CC(N)=O)C(=O)N[C@@H](CCCNC(=N)N)C(=O)N[C@@H](CCCNC(=N)N)C(=O)N[C@@H](C)C(=O)N[C@@H](CCCCN)C(=O)N[C@@H](C)C(=O)N[C@@H](CCCCN)C(=O)N[C@@H](CCCCN)C(=O)N[C@@H](CCCCNC(=O)c1ccc2c(c1)C(=O)OC21c2ccc(O)cc2Oc2cc(O)ccc21)C(=O)O", "note": "[6A, RQAKAAAQNRRAKAKKK-FAM] (H-RQAKAAAQNRRAKAKKK(5FAM)-OH)", "values": [
      {"measurement": "distribution in the cornea", "setting": "[1]; [4]", "result": "significantly less distributed"},
      {"measurement": "distribution in the retina", "setting": "[1]; [4]", "result": "less distributed"},
      {"measurement": "FAM fluorescence signal in anterior and posterior segment of the eye compared with wild-type penetratin", "setting": "[1]; 10 minutes after eye drops, 30 μM, 5 μL x 3", "result": "weakened"},
      {"measurement": "amount entering the eye (cornea and retina) compared with wild-type penetratin", "setting": "[1]; semi-quantitative analysis (FIG. 6C)", "result": "significantly less"},
      {"measurement": "Papp value relative to wild-type penetratin, isolated sclera", "setting": "[2]; [5]", "result": "⅔"},
      {"measurement": "fluorescence signal in isolated sclera sections compared with wild-type penetratin group", "setting": "[2]; [6]", "result": "significantly weaker"},
      {"measurement": "Papp value relative to wild-type penetratin, isolated cornea", "setting": "[3]; [5]", "result": "⅕"},
      {"measurement": "fluorescence in isolated cornea sections compared with wild-type penetratin group", "setting": "[3]; [6]", "result": "no obvious fluorescence signal"}
    ]}
  ]
}
